Results: US5283255A, “Wavelength-specific cytotoxic agents” (The University of British Columbia, priority 1992, dated 1994)
Read-outs that look alike come from different tables or passages of the source.

Tests used:
[1] = test system: VSV; assay: microbe, parasite or virus in culture; parameters: species or system Vesicular stomatitis virus; conditions: Vesicular stomatitis virus, light or radiation study, 2 h, read-out: viral kill, 2 μg/ml; 1 ml; 2 h; 57.6 J/cm^2
[2] = test system: tumor cells; assay: Alternate in vivo assay: kill of tumor cells from dosed mice (MTT); conditions: 180 min
[3] = Solubility on dilution for addition to blood; conditions: DMSO stock 8 mg/ml diluted into PBS
[4] = test system: M-1 rhabdomycoscercoma; assay: In vivo photosensitization, M-1 rhabdomyosarcoma system in DBA/J2 mice; conditions: for Number of Days Tumor Free (PR) / Cures (tumor regressed and tumor-free for 30 days): Table 6; for Number of Days Tumor Free (PR): 567 Jo/cm^2, IV 24 h before light; for Cures (tumor regressed and tumor-free for 30 days): 567 Jo/cm^2, 8 animals per group; for Days Tumor-free / Number of Cures: Table 7, light dose 378 To/cm^3; for Number of Cures: 9-15 animals
Protocol: Studies of potential photosensitizers were performed using the M-1 rhabdomycoscercoma system in DBA/J2 mice. The compositions to be tested were diluted to a concentration of […] in PBS from a stock solution in DMSO at 8 mg/ml (except Photofrin® II, which was diluted directly from the clinical vial). […]

[5] = test system: target cells; assay: In vitro evaluation of BPD-DA, -MA, -DB and -MB (as in Example 1); format: cell-based
Protocol: For the "affinity" assay, in the dark, 100 μl of the target cell suspension and 100 μl of the test or control compound were mixed. "Labeling" was allowed to continue for one hour at 4° C., and labeled cells were washed in the dark three times with 3 ml medium each time and resuspended in fresh medium. The resuspended cells were then subjected to light exposure at 300-750 nanometers for 30 minutes.
In a "direct" assay the target cells were irradiated immediately upon addition of the test or control compound.
The effect of irradiation was estimated using methods appropriate to the target cells.
The four compounds shown in FIG. 2, wherein R^1 and R^2 are carbomethoxy, were tested in vitro as described in Example 1.

[6] = test system: skin; assay: Skin sensitivity assay in mice bearing P815 tumors
Protocol: Mice bearing P815 tumors were shaved and injected with equivalent amounts of photosensitizer, and exposed to 72 Jo/cm^2 (80 mw/cm^2 -15 min-full spectrum) at various time intervals. Skin biopsies were taken at 24 and 48 hours after light irradiation and visual evaluations were made blind.

[7] = test system: tumor and normal tissues; conditions: mouse, in vivo
Text: Biodistribution studies have been conducted using tritiated BPD-MA and BPD-MB.

[8] = Absorption spectrum; format: physicochemical; conditions: R^1 and R^2 carbomethoxy; FIG. 3
Text: All of the compositions of the invention employ as the light absorbing compound, a derivative of the protoporphyrin ring system which has a light absorption maximum in the range of 670-780 nanometers. […] Only BPD-DA has a major absorption peak at about 685 nm.

SMILES: C=Cc1c(C)c2cc3nc(cc4[nH]c(cc5nc(cc1[nH]2)C1(C)C5=CC=C(C(=O)OC)C1C(=O)OC)c(C)c4CCC(=O)O)C(CCC(=O)OC)=C3C (stereo not drawn) [BPD-MB]
- log reduction at 2 µg/mL [1]: 4
- % Kill ([2]; 33 μg/mouse IV, light dose 5.7 Jo): 25.2%
- treatment required to achieve solubility [3]: required a 20-minute sonication in ultrasonic bath to achieve solubility
- Number of Days Tumor Free (PR) [4]: 10.6 days
- Cures (tumor regressed and tumor-free for 30 days) [4]: 3
- Days Tumor-free [4]: 8.7 days
- Number of Cures [4]: 6
- in vitro photosensitivity [5]: somewhat more active
- skin photosensitizing activity ([6]; 72 Jo/cm^2, biopsies 24 and 48 h after light): to a lesser extent
- time dependence of skin photosensitizing activity ([6]; light at various intervals after drug): only present when light treatment was given 3 hours post drug administration

SMILES: C=Cc1c(C)c2cc3nc(cc4[nH]c(cc5nc(cc1[nH]2)C(C)=C5CCC(=O)O)c(CCC(=O)OC)c4C)C1(C)C3=CC=C(C(=O)OC)C1C(=O)OC (stereo not drawn) [^3 H-BPD-MA]
- ratio of concentration in tumor to Blood ([7]; 180 min): 0.52
- ratio of concentration in tumor to Brain ([7]; 180 min): 3.76
- ratio of concentration in tumor to Heart ([7]; 180 min): 1.09
- ratio of concentration in tumor to Intestine ([7]; 180 min): 2.42
- ratio of concentration in tumor to Lung ([7]; 180 min): 0.79
- ratio of concentration in tumor to Muscle ([7]; 180 min): 2.68
- ratio of concentration in tumor to Skin ([7]; 180 min): 2.57
- ratio of concentration in tumor to Stomach ([7]; 180 min): 1.57
- ratio of concentration in tumor to Blood ([7]; 1440 min): 1.45
- ratio of concentration in tumor to Brain ([7]; 1440 min): 3.06
- ratio of concentration in tumor to Heart ([7]; 1440 min): 1.71
- ratio of concentration in tumor to Intestine ([7]; 1440 min): 1.85
- ratio of concentration in tumor to Lung ([7]; 1440 min): 1.55
- ratio of concentration in tumor to Muscle ([7]; 1440 min): 2.98
- ratio of concentration in tumor to Skin ([7]; 1440 min): 1.64
- ratio of concentration in tumor to Stomach ([7]; 1440 min): 1.89
- ratio of concentration in tumor to Blood ([7]; 2880 min): 1.37
- ratio of concentration in tumor to Brain ([7]; 2880 min): 2.92
- ratio of concentration in tumor to Heart ([7]; 2880 min): 1.63
- ratio of concentration in tumor to Intestine ([7]; 2880 min): 1.88
- ratio of concentration in tumor to Lung ([7]; 2880 min): 1.47
- ratio of concentration in tumor to Muscle ([7]; 2880 min): 2.77
- ratio of concentration in tumor to Skin ([7]; 2880 min): 1.95
- ratio of concentration in tumor to Stomach ([7]; 2880 min): 2.08
- ratio of concentration in tumor to Blood ([7]; 4320 min): 1.66
- ratio of concentration in tumor to Brain ([7]; 4320 min): 2.69
- ratio of concentration in tumor to Heart ([7]; 4320 min): 1.46
- ratio of concentration in tumor to Intestine ([7]; 4320 min): 1.48
- ratio of concentration in tumor to Lung ([7]; 4320 min): 1.16
- ratio of concentration in tumor to Muscle ([7]; 4320 min): 2.16
- ratio of concentration in tumor to Skin ([7]; 4320 min): 1.57
- ratio of concentration in tumor to Stomach ([7]; 4320 min): 2.04
- ratio of concentration in tumor to Blood ([7]; 5760 min): 2.77
- ratio of concentration in tumor to Brain ([7]; 5760 min): 4.18
- ratio of concentration in tumor to Heart ([7]; 5760 min): 2.24
- ratio of concentration in tumor to Intestine ([7]; 5760 min): 3.29
- ratio of concentration in tumor to Lung ([7]; 5760 min): 1.63
- ratio of concentration in tumor to Muscle ([7]; 5760 min): 3.45
- ratio of concentration in tumor to Skin ([7]; 5760 min): 2.03
- ratio of concentration in tumor to Stomach ([7]; 5760 min): 2.23
- ratio of concentration in tumor to Blood ([7]; 10080 min): 3.65
- ratio of concentration in tumor to Brain ([7]; 10080 min): 6.91
- ratio of concentration in tumor to Heart ([7]; 10080 min): 2.51
- ratio of concentration in tumor to Intestine ([7]; 10080 min): 2.23
- ratio of concentration in tumor to Lung ([7]; 10080 min): 1.79
- ratio of concentration in tumor to Muscle ([7]; 10080 min): 4.23
- ratio of concentration in tumor to Skin ([7]; 10080 min): 3.51
- ratio of concentration in tumor to Stomach ([7]; 10080 min): 2.98
- Tumor skin ratios, most favorable time ([7]; iv): most favorable 3 hours after IV administration

SMILES: C=Cc1c(C)c2cc3nc(cc4[nH]c(cc5nc(cc1[nH]2)C(C)=C5CCC(=O)O)c(CCC(=O)O)c4C)C1(C)C3=CC=C(C(=O)OC)C1C(=O)OC (stereo not drawn) [BPD-DA]
- % Kill ([2]; 80 μg/mouse IV, light dose 3.8 Jo): 11.0%
- % Kill ([2]; 80 μg/mouse IV, light dose 7.6 Jo): 26.0%
- Number of Days Tumor Free (PR) [4]: 10.7 days
- Cures (tumor regressed and tumor-free for 30 days) [4]: 4
- Days Tumor-free [4]: 2.5 days
- Number of Cures [4]: 4
- major absorption peak [8]: about 685 nm
